In ChEMBL document CHEMBL5042549, “Discovery of Inhibitors of the Lipopolysaccharide Transporter MsbA: From a Screening Hit to Potent Wild-Type Gram-Negative Activity” (J Med Chem, 2022):
pIC50: −log10 of the molar value. In brackets after ≈: the same amount, converted by molar mass. Several values for one entry are separate records, joined by “and”; a condition that tells them apart may be missing. Equal values may be shown once. Activity calls are given as the source filed them. No cut-off for these calls is given here.

Experiments:
Escherichia coli [1] = test: Selectivity ratio of MIC for Escherichia coli MG1655 msbA-cKO lptD (imp4213) […]; type: functional
Enterobacter cloacae [2] = test: Antibacterial activity against wild type Enterobacter cloacae (ATCC 13047) assessed as membrane stacking at 50 microM by electron microscopy; type: functional, organism-based
[3] = Half life in CD-1 mouse at 1 mg/kg, iv measured upto 8 hrs by LC-MS/MS analysis; type: ADME, organism-based; conditions: in vivo
Escherichia coli [4] = test: Antibacterial activity against wild type Escherichia coli MG1655 msbA-cKO lptD (imp4213) expressing Acinetobacter baumannii MsbA assessed as bacterial growth inhibition by broth microdilution assay; type: functional
Acinetobacter baumannii = test: Antibacterial activity against wild type Acinetobacter baumannii (ATCC 17978) assessed as bacterial growth inhibition by broth microdilution assay; type: functional
Enterobacter cloacae [5] = test: Antibacterial activity against wild type Enterobacter cloacae (ATCC 13047) assessed as bacterial growth inhibition by broth microdilution assay; type: functional
Klebsiella pneumoniae [6] = test: Antibacterial activity against wild type Klebsiella pneumoniae MGH78578 (ATCC 700721) assessed as bacterial growth inhibition by broth microdilution assay; type: functional
Klebsiella pneumoniae [7] = test: Antibacterial activity against wild type Klebsiella pneumoniae MGH78578 (ATCC 700721) assessed as membrane stacking at 50 microM by electron microscopy; type: functional, organism-based
[8] = Inhibition of Escherichia coli MsbA preincubated for 10 mins followed by ATP addition and incubated for 1 hr by fluorescence polarization assay
Escherichia coli [9] = test: Antibacterial activity against wild type Escherichia coli CFT073 (ATCC 700928) assessed as induction of cell lysis at 50 microM by electron microscopy; type: functional, organism-based
[10] = Clearance in CD-1 mouse at 1 mg/kg, iv measured upto 8 hrs by LC-MS/MS analysis; type: ADME, organism-based; conditions: in vivo
Escherichia coli [11] = test: Antibacterial activity against wild type Escherichia coli MG1655 msbA-cKO lptD (imp4213) expressing Escherichia coli MsbA assessed as bacterial growth inhibition by broth microdilution assay; type: functional
Pseudomonas aeruginosa = test: Antibacterial activity against wild type Pseudomonas aeruginosa PA14 assessed as bacterial growth inhibition by broth microdilution assay; type: functional
[12] = Lipophilicity, logD of compound by shake flask method; type: physicochemical; conditions: octanol/water
Escherichia coli [13] = test: Antibacterial activity against wild type Escherichia coli CFT073 (ATCC 700928) assessed as bacterial growth by broth microdilution assay; type: functional

half-life [3]: 1.4 h | MIC (Escherichia coli [4]): > 71 µM | MIC (Acinetobacter baumannii): > 100 µM | MIC (Enterobacter cloacae [5]): 6 µM (≈ 2.71 µg/mL) | MIC (Klebsiella pneumoniae [6]): 6 µM (≈ 2.71 µg/mL) | pIC50 [8]: 8.52 | clearance [10]: 0.48 L/h/kg | MIC (Escherichia coli [11]): 0.8 µM (≈ 0.361 µg/mL) | MIC (Pseudomonas aeruginosa): > 100 µM | logD [12]: 4.3 | MIC (Escherichia coli [13]): 6 µM and 2.7 µg/mL
SMILES: C[C@H](Oc1ccc2ccc(/C=C/c3nn[nH]n3)c(C3CC3)c2c1)c1c(Cl)cccc1Cl
Selectivity ratio (Escherichia coli [1]): > 89 | Activity (Enterobacter cloacae [2]): Active | Activity (Klebsiella pneumoniae [7]): Active | Activity (Escherichia coli [9]): Active
